Data reported in patent publication US6211250A, “Percutaneous delivery system” (Soltec Research Pty Ltd., priority 1996, dated 2001).
“Also recorded” adds a separate entry of the source.

Experiments:
[1] = In vitro skin diffusion through shed snake skin in horizontal flow-through diffusion cells; type: in vitro ADME, Children's Python; settings: result in words
Excerpt: The Children's Python shed snake skin was obtained during natural shedding and the dorsal skin was used. Shed snake skin has shown to be a suitable model membrane for human skin by Itoh, et al., Use of Shed Snake Skin as a Model Membrane for In Vitro Percutaneous Penetration Studies: Comparison with Human Skin Pharm.
Method of Conducting In-Vitro Skin Diffusion Experiments in Horizontal Diffusion Cells
A modified stainless steel flow-through diffusion cell assembly based on that first shown by Cooper in J. Pharm. Sci. 73, 1984, was used to perform the experiments on diffusion of the drugs from various donor compositions through snake skin.
Topical formulations are weighed out onto the skin substrate which has an area of 0.79 cm^2. Active substance penetrates through the skin and into the receptor solution in the bottom section of the cell. Inlet and outlet tubes connected to the receptor chamber maintain skin conditions.
The temperature of the skin was maintained at 32° C.
The receptor solution consisted of 50% propylene glycol in water, made isotonic with 0.9% sodium chloride and preserved with 0.1% sodium azide.
The concentration of applied drug in each diffusion cell sample was measured using high pressure liquid chromatography (HPLC) and absorbance detection. The results reported for each experiment are average values of the replicate diffusion cells. […]

Candida albicans = settings: result in words
Experimental: The gels and cream were applied to round glass cover slips of 5 cm^2 each. The application rate for all products was 5 mg/cm^2.
After drying, the coated side of the slides were placed on MEA plates which had been previously seeded with a culture of C. albicans. The plates were incubated at 37° C. for 72 hours. The zone of inhibition was measured around the test slides at the end of the incubation period. Furthermore the slides were removed and an assessment of the growth of the test organism was made in the contact zone with the slide. All tests were performed in duplicate.

Row | Compound | penetration / rate of release of Ketoprofen into the skin (FIG. 3) ([1]; Example 3, varying level of Dermacryl 79) | penetration of ketoprofen (FIG. 5) ([1]; Example 8, different hydrophobic polymers) | activity of clotrimazole in the gel film against C. albicans (Candida albicans)
1 | CC(C(=O)O)c1cccc(C(=O)c2ccccc2)c1 (stereo not drawn) [Ketoprofen, ketoprofen] | the rate of the release of Ketoprofen into the skin of the subject can be varied | can be controlled through the incorporation of hydrophobic polymers | 
2 | Clc1ccccc1C(c1ccccc1)(c1ccccc1)n1ccnc1 [clotrimazole] |  |  | biologically active within the film according to the invention and in fact is more active than the commercial clotrimazole cream; also recorded: could be increased by addition of a plasticiser ie., propylene glycol
